Source: US11964953B2, “Substituted aminothiazoles as DGKzeta inhibitors for immune activation” (Bayer Aktiengesellschaft, priority 2020, dated 2024)

These compounds were tested against human DGKζ (Homo sapiens (Human), UniProt Q13574) (assay: Human DGKζ kinase activity inhibition assay (ADP-Glo)). Conditions: in vitro human DGKζ kinase activity inhibition assay; read-out: IC50.
Assay type: biochemical
In short: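 Enzyme was C-terminally FLAG-tagged full-length recombinant human DGKζ from baculovirus-infected insect cells. Substrate preparation used octyl-β-D-glucopyranoside in 50 mM MOPS pH 7.4 with sonication; ADP generated was quantified by ADP-Glo luminescence as activity measure.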

human DGKζ, sequence (Q13574 other isoform, or with tags, fused parts or gaps): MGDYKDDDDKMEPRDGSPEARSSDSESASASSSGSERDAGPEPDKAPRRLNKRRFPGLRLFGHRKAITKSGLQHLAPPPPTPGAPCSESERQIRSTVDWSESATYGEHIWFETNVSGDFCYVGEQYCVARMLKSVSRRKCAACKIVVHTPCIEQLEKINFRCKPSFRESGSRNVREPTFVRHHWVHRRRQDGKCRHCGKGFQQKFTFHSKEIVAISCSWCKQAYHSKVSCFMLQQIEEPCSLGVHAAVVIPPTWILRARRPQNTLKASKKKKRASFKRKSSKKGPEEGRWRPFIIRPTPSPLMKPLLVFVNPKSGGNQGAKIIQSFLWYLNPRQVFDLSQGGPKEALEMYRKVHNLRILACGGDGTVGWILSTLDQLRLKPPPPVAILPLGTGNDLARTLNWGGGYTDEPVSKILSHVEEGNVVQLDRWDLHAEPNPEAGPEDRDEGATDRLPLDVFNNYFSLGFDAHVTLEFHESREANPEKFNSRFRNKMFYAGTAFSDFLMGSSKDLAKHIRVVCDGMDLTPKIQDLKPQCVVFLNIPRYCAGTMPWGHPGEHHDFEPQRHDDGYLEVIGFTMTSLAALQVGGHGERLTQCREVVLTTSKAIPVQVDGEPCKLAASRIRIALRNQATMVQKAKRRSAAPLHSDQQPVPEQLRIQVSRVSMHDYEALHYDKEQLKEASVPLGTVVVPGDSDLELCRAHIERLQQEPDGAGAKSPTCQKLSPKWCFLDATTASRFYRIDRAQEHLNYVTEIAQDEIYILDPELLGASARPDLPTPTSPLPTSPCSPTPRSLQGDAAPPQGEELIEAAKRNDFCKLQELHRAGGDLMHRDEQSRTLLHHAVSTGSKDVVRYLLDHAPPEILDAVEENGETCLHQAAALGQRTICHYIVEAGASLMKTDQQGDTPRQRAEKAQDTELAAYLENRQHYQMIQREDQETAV

| SMILES | IC50 |
| --- | --- |
| CC(C(N)=O)N(c1ccc(N(C)C)c(Cl)c1)c1nc(N)c(C(=O)c2ccccc2)s1 (racemic) [Example 13, rac-2-[N-(4-amino-5-benzoyl-thiazol-2-yl)-3-chloro-4-(dimethylamino)anilino]propanamide] | 357 nM |
| COc1ccc(C(=O)c2sc(N(c3ccc(F)c(F)c3)C(C)C(N)=O)nc2N)cn1 (single isomer, unassigned) [Example 52.1, 2-(N-[4-amino-5-(6-methoxypyridine-3-carbonyl)thiazol-2-yl]-3,4-difluoro-anilino)propanamide] | 72.7 nM |
| CC(C(N)=O)N(c1cccc(F)c1)c1nc(N)c(C(=O)c2ccccc2)s1 (racemic) [Example 74, rac-2-(N-(4-amino-5-benzoyl-thiazol-2-yl)-3-fluoro-anilino)propanamide] | 190 nM |
| CC(C(N)=O)N(c1ccc(C(F)(F)F)nc1)c1nc(N)c(C(=O)c2ccccc2)s1 (racemic) [Example 230, rac-2-[(4-amino-5-benzoyl-thiazol-2-yl)-[6-(trifluoromethyl)-3-pyridyl]amino]propanamide] | 199 nM |
| CC(C(N)=O)N(c1ccc(Cl)cc1)c1nc(N)c(C(=O)c2ccccc2)s1 (racemic) [Example 34, rac-2-(N-(4-amino-5-benzoyl-thiazol-2-yl)-4-chloro-anilino)propanamide] | 34.4 nM |
| CC(C(N)=O)N(c1ccc(F)cc1)c1nc(N)c(C(=O)c2ccnc(C(F)F)c2)s1 (racemic) [Example 188, rac-2-(N-[4-amino-5-[2-(difluoromethyl)pyridine-4-carbonyl]thiazol-2-yl]-4-fluoro-anilino)propanamide] | 1240 nM |
| CC(C(N)=O)N(c1ccc(OC(F)F)c(F)c1)c1nc(N)c(C(=O)c2ccc(OC(F)F)cc2)s1 (racemic) [Example 207, rac-2-[N-[4-amino-5-[4-(difluoromethoxy)benzoyl]thiazol-2-yl]-4-(difluoromethoxy)-3-fluoro-anilino]propanamide] | 22 nM |
| CC(C(N)=O)N(c1ccc(F)c(Cl)c1)c1nc(N)c(C(=O)c2ccncc2)s1 (single isomer, unassigned) [Example 160.2, 2-(N-[4-amino-5-(pyridine-4-carbonyl)thiazol-2-yl]-3-chloro-4-fluoro-anilino)propanamide] | 8450 nM |
| CC(C(N)=O)N(c1ccc(OC(F)F)c(F)c1)c1nc(N)c(C(=O)c2ccncc2)s1 (racemic) [Example 208, rac-2-[N-[4-amino-5-(pyridine-4-carbonyl)thiazol-2-yl]-4-(difluoromethoxy)-3-fluoro-anilino]propanamide] | 672 nM |
| COc1ccc(C(=O)c2sc(N(c3ccc(OC(F)F)c(Cl)c3)C(C)C(N)=O)nc2N)cc1 (racemic) [Example 200, rac-2-[N-[4-amino-5-(4-methoxybenzoyl)thiazol-2-yl]-3-chloro-4-(difluoromethoxy)anilino]propanamide] | 70 nM |
| CC(C(N)=O)N(c1ccc(F)c(F)c1)c1nc(N)c(C(=O)c2ccc(OCc3ccccc3)cc2)s1 (single isomer, unassigned) [Example 165.1, 2-(N-[4-amino-5-(4-benzyloxybenzoyl)thiazol-2-yl]-3,4-difluoro-anilino)propanamide] | 2 nM |
| CC(C(N)=O)N(c1ccc(F)cc1)c1nc(N)c(C(=O)c2ccc(OCC(=O)NCC(O)CO)cc2)s1 (racemic) [Example 116, 2-(N-[4-amino-5-(4-[2-(2,3-dihydroxypropylamino)-2-oxo-ethoxy]benzoyl]thiazol-2-yl]-4-fluoro-anilino)propanamide] | 581 nM |
| COc1ccc(C(=O)c2sc(N(c3ccc(OC(F)F)c(F)c3)C(C)C(N)=O)nc2N)cc1 (racemic) [Example 205, rac-2-[N-[4-amino-5-(4-methoxybenzoyl)thiazol-2-yl]-4-(difluoromethoxy)-3-fluoro-anilino]propanamide] | 54 nM |
| CC(C(N)=O)N(c1ccc(OC(F)(F)F)c(Cl)c1)c1nc(N)c(C(=O)c2ccccc2)s1 (racemic) [Example 211, rac-2-[N-(4-amino-5-benzoyl-thiazol-2-yl)-3-chloro-4-(trifluoromethoxy)anilino]propanamide] | 183 nM |
| CC(C(N)=O)N(c1ccc(F)cc1)c1nc(N)c(C(=O)c2cccc(F)c2)s1 (racemic) [Example 16, rac-2-(N-[4-amino-5-(3-fluorobenzoyl)thiazol-2-yl]-4-fluoro-anilino)propanamide] | 283 nM |
| CC(C(N)=O)N(c1ccc(F)c(F)c1)c1nc(N)c(C(=O)c2cccnc2)s1 (racemic) [Example 184, rac-2-(N-[4-amino-5-(pyridine-3-carbonyl)thiazol-2-yl]-3,4-difluoro-anilino)propanamide] | 428 nM |
| COc1ccc(N(c2nc(N)c(C(=O)c3ccccc3)s2)C(C)C(N)=O)c(C)c1 (racemic) [Example 1, rac-2-(N-(4-amino-5-benzoyl-thiazol-2-yl)-4-methoxy-2-methyl-anilino)propanamide] | 946 nM |

| SMILES | IC50 |
| --- | --- |
| CC(C(N)=O)N(c1ccc(F)cc1)c1nc(N)c(C(=O)c2ccnc(Cl)c2)s1 (racemic) [Example 186, rac-2-(N-[4-amino-5-(2-chloropyridine-4-carbonyl)thiazol-2-yl]-4-fluoro-anilino)propanamide] | 392 nM |
| CC(C(N)=O)N(c1ccc(OC(F)(F)F)nc1)c1nc(N)c(C(=O)c2ccc(OC(F)F)nc2)s1 (racemic) [Example 251, rac-2-[[4-amino-5-[6-(difluoromethoxy)pyridine-3-carbonyl]thiazol-2-yl]-[6-(trifluoromethoxy)-3-pyridyl]amino]propanamide] | 87 nM |
| CC(C(N)=O)N(c1ccc(F)cc1)c1nc(N)c(C(=O)c2ccc(OCC(=O)N3CCN(C)CC3)cc2)s1 (racemic) [Example 86, rac-2-(N-[4-amino-5-[4-[2-(4-methylpiperazin-1-yl)-2-oxo-ethoxy]benzoyl]thiazol-2-yl]-4-fluoro-anilino)propanamide] | 759 nM |
| CC(C(N)=O)N(c1ccc(OCc2ccccc2)cc1)c1nc(N)c(C(=O)c2ccc(OC(F)F)cc2)s1 (single isomer, unassigned) [Example 182.1, 2-(N-[4-amino-5-[4-(difluoromethoxy)benzoyl]thiazol-2-yl]-4-benzyloxy-anilino)propanamide] | 84 nM |
| CC(C(N)=O)N(c1ccc(Cl)nc1)c1nc(N)c(C(=O)c2ccccc2)s1 (racemic) [Example 232, rac-2-[(4-amino-5-benzoyl-thiazol-2-yl)-(6-chloro-3-pyridyl)amino]propanamide] | 112 nM |
| COc1ccc(C(=O)c2sc(N(c3ccc(Cl)c(F)c3)[C@H](C)C(N)=O)nc2N)cc1 [Example 59.1, (R)-2-(N-[4-amino-5-(4-methoxybenzoyl)thiazol-2-yl]-4-chloro-3-fluoro-anilino)propanamide] | 4 nM |
| CC(C(N)=O)N(c1ccc(C(F)F)cc1)c1nc(N)c(C(=O)c2ccncc2)s1 (racemic) [Example 246, rac-2-[N-[4-amino-5-(pyridine-4-carbonyl)thiazol-2-yl]-4-(difluoromethyl)anilino]propanamide] | 662 nM |
| CC(C(N)=O)N(c1ccc(F)cc1)c1nc(N)c(C(=O)c2ccc(OC(F)F)cc2)s1 (single isomer, unassigned) [Example 44.1, 2-(N-[4-amino-5-[4-(difluoromethoxy)benzoyl]thiazol-2-yl]-4-fluoro-anilino)propanamide] | 1390 nM |
| CC(C(N)=O)N(c1ccc(Cl)cc1)c1nc(N)c(C(=O)c2ccncc2)s1 (racemic) [Example 57, rac-2-(N-[4-amino-5-(pyridine-4-carbonyl)thiazol-2-yl]-4-chloro-anilino)propanamide] | 155 nM |
| CC(C(N)=O)N(c1ccc(F)c(OC(F)(F)F)c1)c1nc(N)c(C(=O)c2ccccc2)s1 (racemic) [Example 235, rac-2-[N-(4-amino-5-benzoyl-thiazol-2-yl)-4-fluoro-3-(trifluoromethoxy)anilino]propanamide] | 542 nM |
| CC(=O)OCCOc1ccc(C(=O)c2sc(N(c3ccc(F)cc3)C(C)C(N)=O)nc2N)cc1 (racemic) [Example 168, rac-2-[4-[4-amino-2-(N-(2-amino-1-methyl-2-oxo-ethyl)-4-fluoro-anilino)thiazole-5-carbonyl]phenoxy]ethyl acetate] | 19 nM |
| CC(C(N)=O)N(c1ccc(F)cc1)c1nc(N)c(C(=O)c2ccc(NC(=O)OCc3ccccc3)cc2)s1 (racemic) [Example 169, rac-benzyl N-[4-[4-amino-2-(N-(2-amino-1-methyl-2-oxo-ethyl)-4-fluoro-anilino)thiazole-5-carbonyl]phenyl]carbamate] | 3 nM |
| CC(C(N)=O)N(c1ccc(F)cc1)c1nc(N)c(C(=O)c2ccncc2)s1 (racemic) [Example 7, rac-2-(N-[4-amino-5-(pyridine-4-carbonyl)thiazol-2-yl]-4-fluoro-anilino)propanamide] | 705 nM |
| CC(C(N)=O)N(c1ccc(F)cc1)c1nc(N)c(C(=O)c2ccc(OCC(=O)NCC(O)CO)cc2)s1 (racemic) [Example 147, 2-(N-[4-amino-5-[4-[2-((2RS),3-dihydroxypropylamino)-2-oxo-ethoxy]benzoyl]thiazol-2-yl]-4-fluoro-anilino)propanamide] | 291 nM |
| CCC(C(N)=O)N(c1ccccc1)c1nc(N)c(C(=O)c2ccccc2)s1 (racemic) [Example 67, rac-2-[(4-amino-5-benzoyl-1,3-thiazol-2-yl)(phenyl)amino]butanamide] | 2270 nM |
| COc1ccc(C(=O)c2sc(N(c3ccc(Cl)c(F)c3)C(C)C(N)=O)nc2N)cn1 (single isomer, unassigned) [Example 172.2, 2-(N-[4-amino-5-(6-methoxypyridine-3-carbonyl)thiazol-2-yl]-4-chloro-3-fluoro-anilino)propanamide] | 4890 nM |
| COc1ccc(CNC(=O)COc2ccc(C(=O)c3sc(N(c4ccc(F)cc4)C(C)C(N)=O)nc3N)cc2)cc1 (racemic) [Example 124, rac-2-(N-[4-amino-5-[4-[2-[(4-methoxyphenyl)methylamino]-2-oxo-ethoxy]benzoyl]thiazol-2-yl]-4-fluoro-anilino)propanamide] | 48.3 nM |
